Results from BindingDB's records for doi:10.1016/j.bmcl.2006.10.013 (Abbott Laboratories, 2007).

Target: Transcription factor Jun (Homo sapiens, UniProt P05412)
Test: Inhibition of c-Jun phosphorylation in HepG2 cells

Sequence of Transcription factor Jun (P05412 whole entry): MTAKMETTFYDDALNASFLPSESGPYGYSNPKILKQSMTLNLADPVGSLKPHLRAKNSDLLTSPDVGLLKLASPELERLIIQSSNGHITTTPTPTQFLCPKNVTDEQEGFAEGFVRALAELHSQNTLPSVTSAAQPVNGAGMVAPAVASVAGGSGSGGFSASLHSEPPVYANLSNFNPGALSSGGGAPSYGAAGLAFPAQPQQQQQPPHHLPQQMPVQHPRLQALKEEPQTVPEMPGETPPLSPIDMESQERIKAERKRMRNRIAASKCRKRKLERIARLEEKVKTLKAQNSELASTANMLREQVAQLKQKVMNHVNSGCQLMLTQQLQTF

- EC50: 0.318 µM
SMILES: CCOc1nc(C(=O)NCc2ccc(S(C)(=O)=O)cc2)cc(N)c1C#N [4-amino-5-cyano-6-ethoxy-N-[(4-methanesulfonylphenyl)methyl]pyridine-2-carboxamide]
